US6624163B2, “Benzothiazole derivatives” (Hoffman-La Roche Inc., priority 2001, dated 2003)

How the values were obtained:
[1] = molecular target: T1, human adenosine A2A receptor (Homo sapiens, UniProt P29274); test: [3H]-SCH-58261 binding assay, human adenosine A2A receptor expressed in CHO cell membranes (SPA); conditions: [3H]-SCH-58261 (1 nM) displacement; recombinant receptor in CHO cell membranes; Ki by Cheng-Prussoff from IC50; read-out: hA2 (pKi) (converted)
T1 construct: expressed in transfected cells; host or cells: CHO cells, semliki forest virus expression system; membrane preparation
Description: Human Adenosine A2A Receptor
The human adenosine A2A receptor was recombinantly expressed in chinese hamster ovary (CHO) cells using the semliki forest virus expression system. Cells were harvested, washed twice by centrifugation, homogenised and again washed by centrifugation. The final washed membrane pellet was suspended in a Tris (50 mM) buffer containing 120 mM NaCl, 5 mM KCl, 2 mM CaCl2 and 10 mM MgCl2 (pH 7.4) (buffer A). The [^3H]-SCH-58261 (Dionisotti et al., 1997, Br J Pharmacol 121, 353; 1 nM) binding assay was carried out in 96-well plates in the presence of 2.5 μg of membrane protein, 0.5 mg of Ysi-poly-1-lysine SPA beads and 0.1 U adenosine deaminase in a final volume of 200 μl of buffer A. Non-specific binding was defined using xanthine amine congener (XAC; 2 μM). Compounds were tested at 10 concentrations from 10 μM −0.3 nM. All assays were conducted in duplicate and repeated at least two times. Assay plates were incubated for 1 hour at room temperature before centrifugation and then bound ligand determined using a Packard Topcount scintillation counter. IC50 values were calculated using a non-linear curve fitting program and Ki values calculated using the Cheng-Prussoff equation.

T1 sequence (P29274 whole entry): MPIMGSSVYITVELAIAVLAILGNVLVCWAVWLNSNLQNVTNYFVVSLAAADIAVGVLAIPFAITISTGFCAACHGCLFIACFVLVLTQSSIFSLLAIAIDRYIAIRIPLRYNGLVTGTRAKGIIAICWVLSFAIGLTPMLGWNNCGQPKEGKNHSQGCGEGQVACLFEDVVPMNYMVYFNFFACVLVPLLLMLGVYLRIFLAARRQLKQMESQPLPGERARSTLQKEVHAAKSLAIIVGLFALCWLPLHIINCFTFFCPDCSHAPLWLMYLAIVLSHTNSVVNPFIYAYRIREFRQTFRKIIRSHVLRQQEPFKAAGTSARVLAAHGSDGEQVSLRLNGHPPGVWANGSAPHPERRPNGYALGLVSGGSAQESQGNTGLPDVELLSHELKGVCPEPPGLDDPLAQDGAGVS

| Compound | Ki [1] [nM] | melting point [°C] |
| --- | --- | --- |
| COc1ccc(N2CCOCC2)c2sc(NC(=O)c3ccc(CN(C)C(=O)C4CC4)cc3)nc12 [Example 4, 4-[(Cyclopropanecarbonyl-methyl-amino)-methyl]-N-(4-methoxy-7-morpholin-4-yl-benzothiazol-2-yl)-benzamide] | 0.631 | – |
| COCCN(C)CC(=O)N(C)Cc1ccc(C(=O)Nc2nc3c(OC)ccc(N4CCOCC4)c3s2)cc1 [Example 18, 4-[({[(2-Methoxy-ethyl)-methyl-amino]-acetyl}-methyl-amino)-methyl]-N-(4-methoxy-7-morpholin-4-yl-benzothiazol-2-yl)-benzamide] | – | 171 to 173 |
| COc1ccc(N2CCOCC2)c2sc(NC(=O)c3ccc(CN(C)C(=O)C4CCC4)cc3)nc12 [Example 5, 4-[(Cyclobutanecarbonyl-methyl-amino)-methyl]-N-(4-methoxy-7-morpholin-4-yl-benzothiazol-2-yl)-benzamide] | 0.794 | – |
| CCC(=O)N(C)Cc1ccc(C(=O)Nc2nc3c(OC)ccc(N4CCOCC4)c3s2)cc1 [Example 6, N-(4-Methoxy-7-morpholin-4-yl-benzothiazol-2-yl)-4-[(methyl-propionyl-amino)-methyl]-benzamide] | 0.631 | – |
| CCC(=O)N(CC)Cc1ccc(C(=O)Nc2nc3c(OC)ccc(N4CCOCC4)c3s2)cc1 [Example 14, 4-[(Ethyl-propionyl-amino)-methyl]-N-(4-methoxy-7-morpholin-4-yl-benzothiazol-2-yl)-benzamide] | 1.26 | – |
| COc1ccc(N2CCOCC2)c2sc(NC(=O)c3ccc(CNC(=O)C4CC4)cc3)nc12 [Example 9, 4-[(Cyclopropanecarbonyl-amino)-methyl]-N-(4-methoxy-7-morpholin-4-yl-benzothiazol-2-yl)-benzamide] | 1 | – |
| COc1ccc(N2CCOCC2)c2sc(NC(=O)c3ccc(CNC(C)=O)cc3)nc12 [Example 12, 4-(Acetylamino-methyl)-N-(4-methoxy-7-morpholin-4-yl-benzothiazol-2-yl)-benzamide] | 0.794 | – |
| CCC(=O)NCc1ccc(C(=O)Nc2nc3c(OC)ccc(N4CCOCC4)c3s2)cc1 [Example 7, N-(4-Methoxy-7-morpholin-4-yl-benzothiazol-2-yl)-4-(propionylamino-methyl)-benzamide] | 1 | – |
| COCC(=O)NCc1ccc(C(=O)Nc2nc3c(OC)ccc(N4CCOCC4)c3s2)cc1 [Example 1, 4-[(2-Methoxy-acetylamino)-methyl]-N-(4-methoxy-7-morpholin-4-yl-benzothiazol-2-yl)-benzamide] | 0.794 | – |
| COc1ccc(N2CCOCC2)c2sc(NC(=O)c3ccc(CN(C)C(C)=O)cc3)nc12 [Example 10, 4-[(Acetyl-methyl-amino)-methyl]-N-(4-methoxy-7-morpholin-4-yl-benzothiazol-2-yl)-benzamide] | 1 | – |
| COc1ccc(N2CCOCC2)c2sc(NC(=O)c3ccc(CN(C)C(=O)CN(C)C)cc3)nc12 [Example 15, 4-[(Dimethylaminoacetyl-methyl-amino)-methyl]-N-(4-methoxy-7-morpholin-4-yl-benzothiazol-2-yl)-benzamide] | 1.26 | – |
| COc1ccc(N2CCOCC2)c2sc(NC(=O)c3ccc(CNC(=O)C4CCC4)cc3)nc12 [Example 11, 4-[(Cyclobutanecarbonyl-amino)-methyl]-N-(4-methoxy-7-morpholin-4-yl-benzothiazol-2-yl)-benzamide] | 0.501 | – |
| COCC(=O)N(C)Cc1ccc(C(=O)Nc2nc3c(OC)ccc(N4CCOCC4)c3s2)cc1 [Example 2, 4-[(Methoxyacetyl-methyl-amino)-methyl]-N-(4-methoxy-7-morpholin-4-yl-benzothiazol-2-yl)-benzamide] | 1.26 | – |
| COc1ccc(N2CCOCC2)c2sc(NC(=O)c3ccc(CN(C)C(=O)CN4CCCC4)cc3)nc12 [Example 19, N-(4-Methoxy-7-morpholin-4-yl-benzothiazol-2-yl)-4-{[methyl-(pyrrolidin-1-yl-acetyl)-amino]-methyl}-benzamide] | 1.58 | 114 to 116 |
